Test results as given in article PMC11855478, “Bicyclic N,S-Acetals Containing Fused Cysteine-Amide System as New Heterocyclic Class Targeting Human Farnesyltransferase (FTase-h)” (International Journal of Molecular Sciences, 2025).

Assays:
HCC-2998 (Colon Cancer) = assay: NCI one dose, HCC-2998; type: cell-based, human; conditions: HCC-2998, 1.00E-5 Molar one dose
Experimental: (§1) 3.4. Cell Proliferation Assay
(§2) Selected compounds were tested on a panel of 60 human cancer cell lines at the National Cancer Institute (NCI), Germantown, MD, USA. The cytotoxicity studies were conducted using a 48 h exposure protocol using the sulfo-rhodamine B assay.

OVCAR-3 (Ovarian Cancer) = assay: NCI one dose, OVCAR-3; type: cell-based, human; conditions: OVCAR-3, 1.00E-5 Molar one dose
Experimental: as §1, §2

MCF7 (Breast Cancer) = assay: NCI one dose, MCF7; type: cell-based, human; conditions: MCF7, 1.00E-5 Molar one dose
Experimental: as §1, §2

OVCAR-4 (Ovarian Cancer) = assay: NCI one dose, OVCAR-4; type: cell-based, human; conditions: OVCAR-4, 1.00E-5 Molar one dose
Experimental: as §1, §2

TK-10 (Renal Cancer) = assay: NCI one dose, TK-10; type: cell-based, human; conditions: TK-10, 1.00E-5 Molar one dose
Experimental: as §1, §2

HT29 (Colon Cancer) = assay: NCI one dose, HT29; type: cell-based, human; conditions: HT29, 1.00E-5 Molar one dose
Experimental: as §1, §2

[1] = tested on: A549/ATCC (Non-Small Cell Lung Cancer); assay: NCI one dose, A549/ATCC; type: cell-based, human; conditions: 1.00E-5 Molar one dose
Experimental: as §1, §2

OVCAR-8 (Ovarian Cancer) = assay: NCI one dose, OVCAR-8; type: cell-based, human; conditions: OVCAR-8, 1.00E-5 Molar one dose
Experimental: as §1, §2

SN12C (Renal Cancer) = assay: NCI one dose, SN12C; type: cell-based, human; conditions: 1.00E-5 Molar one dose
Experimental: as §1, §2

HCT-15 (Colon Cancer) = assay: NCI one dose, HCT-15; type: cell-based, human; conditions: HCT-15, 1.00E-5 Molar one dose
Experimental: as §1, §2

IGROV1 (Ovarian Cancer) = assay: NCI one dose, IGROV1; type: cell-based, human; conditions: IGROV1, 1.00E-5 Molar one dose
Experimental: as §1, §2

SK-MEL-5 (Melanoma) = assay: NCI one dose, SK-MEL-5; type: cell-based, human; conditions: SK-MEL-5, 1.00E-5 Molar one dose
Experimental: as §1, §2

M14 (Melanoma) = assay: NCI one dose, M14; type: cell-based, human; conditions: M14, 1.00E-5 Molar one dose
Experimental: as §1, §2

A498 (Renal Cancer) = assay: NCI one dose, A498; type: cell-based, human; conditions: A498, 1.00E-5 Molar one dose
Experimental: as §1, §2

SNB-75 (CNS Cancer) = assay: NCI one dose, SNB-75; type: cell-based, human; conditions: SNB-75, 1.00E-5 Molar one dose
Experimental: as §1, §2

[2] = tested on: panel of 60 human cancer cell lines; assay: NCI 60 cell panel one dose screen (whole panel); type: cell-based; design: Delta (One Dose Mean Graph): unit not given here; conditions: 1.00E-5 Molar one dose; for Range (One Dose Mean Graph): in % (unit assumed); for Mean Growth Percent: mean over tested cell lines
Experimental: as §1
Selected compounds were tested on a panel of 60 human cancer cell lines at the National Cancer Institute (NCI), Germantown, MD, USA. The cytotoxicity studies were conducted using a 48 h exposure protocol using the sulfo-rhodamine B assay. […]
X. NCI One Dose Mean Graph of sulfides 4a(A -J) and 4b(A-J)
The entire series of sulfides regrouping twenty synthesized FTI-candidates (4aA-J, 4bA-J) were selected by the National Cancer Institute (NCI) for evaluation of their antiproliferative activity against 60 cancer cell lines (see the followings twenty pages for full evaluation reports). […]
inhibiting 36% of the NCI-H522 cells. Such difference between IC50 on human FTase in the nanomolar range and IC50 on cancer cell growth in the micromolar range is characteristic to potent FTIs and was reported previously on different series of compounds (see for example ref erence in the references part […]
Of interest, none of the tested compounds at a high single dose (10 µM) in the full NCI 60 cell panel has shown a cytotoxic profile. […]
inhibitory potential on FTase raise good hope for further investigation of these series as agents fighting

[3] = tested on: NCI-H322M (Non-Small Cell Lung Cancer); assay: NCI one dose, NCI-H322M; type: cell-based, human; conditions: 1.00E-5 Molar one dose
Experimental: as §1, §2

SF-539 (CNS Cancer) = assay: NCI one dose, SF-539; type: cell-based, human; conditions: SF-539, 1.00E-5 Molar one dose
Experimental: as §1, §2

SK-OV-3 (Ovarian Cancer) = assay: NCI one dose, SK-OV-3; type: cell-based, human; conditions: SK-OV-3, 1.00E-5 Molar one dose
Experimental: as §1, §2

786-0 (Renal Cancer) = assay: NCI one dose, 786-0; type: cell-based, human; conditions: 786-0, 1.00E-5 Molar one dose
Experimental: as §1, §2

COLO 205 (Colon Cancer) = assay: NCI one dose, COLO 205; type: cell-based, human; conditions: COLO 205, 1.00E-5 Molar one dose
Experimental: as §1, §2

[4] = tested on: MDA-MB-231/ATCC (Breast Cancer); assay: NCI one dose, MDA-MB-231/ATCC; type: cell-based, human; conditions: 1.00E-5 Molar one dose
Experimental: as §1, §2

UACC-257 melanoma cells = assay: NCI one dose, UACC-257; type: cell-based, human; conditions: UACC-257, 1.00E-5 Molar one dose
Experimental: as §1, §2

SF-295 (CNS Cancer) = assay: NCI one dose, SF-295; type: cell-based, human; conditions: SF-295, 1.00E-5 Molar one dose
Experimental: as §1, §2

SW-620 (Colon Cancer) = assay: NCI one dose, SW-620; type: cell-based, human; conditions: SW-620, 1.00E-5 Molar one dose
Experimental: as §1, §2

[5] = tested on: NCI-H460 (Non-Small Cell Lung Cancer); assay: NCI one dose, NCI-H460; type: cell-based, human; conditions: NCI-H460, 1.00E-5 Molar one dose
Experimental: as §1, §2

T-47D (Breast Cancer) = assay: NCI one dose, T-47D; type: cell-based, human; conditions: 1.00E-5 Molar one dose
Experimental: as §1, §2

RPMI-8226 (Leukemia) = assay: NCI one dose, RPMI-8226; type: cell-based, human; conditions: RPMI-8226, 1.00E-5 Molar one dose
Experimental: as §1, §2

SK-MEL-28 (Melanoma) = assay: NCI one dose, SK-MEL-28; type: cell-based, human; conditions: SK-MEL-28, 1.00E-5 Molar one dose
Experimental: as §1, §2

[6] = tested on: MDA-MB-468 breast cancer cells; assay: NCI one dose, MDA-MB-468; type: cell-based, human; conditions: MDA-MB-468, 1.00E-5 Molar one dose
Experimental: as §1, §2

HS 578T (Breast Cancer) = assay: NCI one dose, HS 578T; type: cell-based, human; conditions: 1.00E-5 Molar one dose
Experimental: as §1, §2

[7] = tested on: NCI/ADR-RES (Ovarian Cancer); assay: NCI one dose, NCI/ADR-RES; type: cell-based, human; conditions: 1.00E-5 Molar one dose
Experimental: as §1, §2

Structure (SMILES) | Growth Percent (HCC-2998 (Colon Cancer)) [%] | Growth Percent (OVCAR-3 (Ovarian Cancer)) [%] | Growth Percent (MCF7 (Breast Cancer)) [%] | Growth Percent (OVCAR-4 (Ovarian Cancer)) [%] | Growth Percent (TK-10 (Renal Cancer)) [%] | Growth Percent (HT29 (Colon Cancer)) [%] | Growth Percent [1] [%] | Growth Percent (OVCAR-8 (Ovarian Cancer)) [%] | Growth Percent (SN12C (Renal Cancer)) [%] | Growth Percent (HCT-15 (Colon Cancer)) [%] | Growth Percent (IGROV1 (Ovarian Cancer)) [%] | Growth Percent (SK-MEL-5 (Melanoma)) [%] | Growth Percent (M14 (Melanoma)) [%] | Growth Percent (A498 (Renal Cancer)) [%] | Growth Percent (SNB-75 (CNS Cancer)) [%] | Delta (One Dose Mean Graph) [2] | Range (One Dose Mean Graph) [2] | Mean Growth Percent [2] [%] | Growth Percent [3] [%] | Growth Percent (SF-539 (CNS Cancer)) [%] | further results
COc1ccc(CNC(=O)[C@@H]2CS[C@@]3(C)c4ccccc4C(=O)N23)cc1 [4bF] | 101.61 | 108.61 | 90.37 | 98.29 | 99.99 | 84.10 | 80.46 | 94.06 | 101.88 | 101.20 | 107.92 | 103.30 | 102.83 | 96.46 | 94.53 | 24.39 | 39.02 | 96.71 | 107.95 | 105.73 | Growth Percent (SK-OV-3 (Ovarian Cancer)): 106.02%; Growth Percent (786-0 (Renal Cancer)): 98.12%; Growth Percent (COLO 205 (Colon Cancer)): 108.39%; Growth Percent [4]: 93.86%; Growth Percent (UACC-257 melanoma cells): 87.83%; Growth Percent (SF-295 (CNS Cancer)): 93.44%; Growth Percent (SW-620 (Colon Cancer)): 106.66%; Growth Percent [5]: 110.45%; Growth Percent (T-47D (Breast Cancer)): 97.83%; Growth Percent (RPMI-8226 (Leukemia)): 88.87%; Growth Percent (SK-MEL-28 (Melanoma)): 106.19%; Growth Percent [6]: 86.72%; Growth Percent (HS 578T (Breast Cancer)): 96.39%; Growth Percent [7]: 97.36%
COc1cc(CNC(=O)[C@@H]2CS[C@@]3(C)c4ccccc4C(=O)N23)cc(OC)c1OC [4bJ] | 95.49 | 112.40 | 93.75 | 97.02 | 102.44 | 82.56 | 83.12 | 92.35 | 91.58 | 105.84 | 106.56 | 102.14 | 108.34 | 90.55 | 97.50 | 27.08 | 43.64 | 95.84 | 99.71 | 98.24 | Growth Percent (SK-OV-3 (Ovarian Cancer)): 103.62%; Growth Percent (786-0 (Renal Cancer)): 102.08%; Growth Percent (COLO 205 (Colon Cancer)): 105.48%; Growth Percent [4]: 98.30%; Growth Percent (UACC-257 melanoma cells): 73.76%; Growth Percent (SF-295 (CNS Cancer)): 103.92%; Growth Percent (SW-620 (Colon Cancer)): 100.88%; Growth Percent [5]: 105.78%; Growth Percent (T-47D (Breast Cancer)): 87.15%; Growth Percent (RPMI-8226 (Leukemia)): 90.22%; Growth Percent (SK-MEL-28 (Melanoma)): 103.28%; Growth Percent [6]: 89.65%; Growth Percent (HS 578T (Breast Cancer)): 94.07%; Growth Percent [7]: 101.60%
COc1ccccc1CNC(=O)[C@@H]1CS[C@@]2(C)c3ccccc3C(=O)N12 [4bG] | 108.79 | 110.44 | 92.90 | 95.75 | 91.89 | 79.32 | 78.33 | 95.21 | 107.44 | 98.16 | 107.94 | 98.16 | 100.11 | 93.00 | 96.63 | 28.52 | 40.41 | 98.55 | 100.27 | 109.96 | Growth Percent (SK-OV-3 (Ovarian Cancer)): 99.44%; Growth Percent (786-0 (Renal Cancer)): 104.93%; Growth Percent (COLO 205 (Colon Cancer)): 105.75%; Growth Percent [4]: 98.66%; Growth Percent (UACC-257 melanoma cells): 74.15%; Growth Percent (SF-295 (CNS Cancer)): 99.22%; Growth Percent (SW-620 (Colon Cancer)): 104.41%; Growth Percent [5]: 107.31%; Growth Percent (T-47D (Breast Cancer)): 98.35%; Growth Percent (RPMI-8226 (Leukemia)): 96.98%; Growth Percent (SK-MEL-28 (Melanoma)): 109.27%; Growth Percent [6]: 93.22%; Growth Percent (HS 578T (Breast Cancer)): 95.65%; Growth Percent [7]: 102.18%
O=C(NCc1ccccc1C(F)(F)F)[C@@H]1CS[C@H]2c3ccccc3C(=O)N12 [4aC] | 111.38 | 106.48 | 90.35 | 105.74 | 108.86 | 91.65 | 90.42 | 94.34 | 101.45 | 103.73 | 98.93 | 107.31 | 95.62 | 98.14 | 85.21 | 21.44 | 40.62 | 96.28 | 103.27 | 95.88 | Growth Percent (SK-OV-3 (Ovarian Cancer)): 85.91%; Growth Percent (786-0 (Renal Cancer)): 86.33%; Growth Percent [4]: 91.35%; Growth Percent (UACC-257 melanoma cells): 86.31%; Growth Percent (SF-295 (CNS Cancer)): 94.85%; Growth Percent (SW-620 (Colon Cancer)): 104.34%; Growth Percent (RPMI-8226 (Leukemia)): 87.69%; Growth Percent (SK-MEL-28 (Melanoma)): 99.12%; Growth Percent [6]: 112.27%; Growth Percent (HS 578T (Breast Cancer)): 104.53%; Growth Percent [7]: 99.79%
